Reference: ChEMBL document CHEMBL5126524, “Niemann-Pick C1-Like 1 inhibitors for reducing cholesterol absorption” (Eur J Med Chem, 2022)

Target: T1, NPC1-like intracellular cholesterol transporter 1 (Homo sapiens, UniProt Q9UHC9)
T1 sequence (Q9UHC9 whole entry): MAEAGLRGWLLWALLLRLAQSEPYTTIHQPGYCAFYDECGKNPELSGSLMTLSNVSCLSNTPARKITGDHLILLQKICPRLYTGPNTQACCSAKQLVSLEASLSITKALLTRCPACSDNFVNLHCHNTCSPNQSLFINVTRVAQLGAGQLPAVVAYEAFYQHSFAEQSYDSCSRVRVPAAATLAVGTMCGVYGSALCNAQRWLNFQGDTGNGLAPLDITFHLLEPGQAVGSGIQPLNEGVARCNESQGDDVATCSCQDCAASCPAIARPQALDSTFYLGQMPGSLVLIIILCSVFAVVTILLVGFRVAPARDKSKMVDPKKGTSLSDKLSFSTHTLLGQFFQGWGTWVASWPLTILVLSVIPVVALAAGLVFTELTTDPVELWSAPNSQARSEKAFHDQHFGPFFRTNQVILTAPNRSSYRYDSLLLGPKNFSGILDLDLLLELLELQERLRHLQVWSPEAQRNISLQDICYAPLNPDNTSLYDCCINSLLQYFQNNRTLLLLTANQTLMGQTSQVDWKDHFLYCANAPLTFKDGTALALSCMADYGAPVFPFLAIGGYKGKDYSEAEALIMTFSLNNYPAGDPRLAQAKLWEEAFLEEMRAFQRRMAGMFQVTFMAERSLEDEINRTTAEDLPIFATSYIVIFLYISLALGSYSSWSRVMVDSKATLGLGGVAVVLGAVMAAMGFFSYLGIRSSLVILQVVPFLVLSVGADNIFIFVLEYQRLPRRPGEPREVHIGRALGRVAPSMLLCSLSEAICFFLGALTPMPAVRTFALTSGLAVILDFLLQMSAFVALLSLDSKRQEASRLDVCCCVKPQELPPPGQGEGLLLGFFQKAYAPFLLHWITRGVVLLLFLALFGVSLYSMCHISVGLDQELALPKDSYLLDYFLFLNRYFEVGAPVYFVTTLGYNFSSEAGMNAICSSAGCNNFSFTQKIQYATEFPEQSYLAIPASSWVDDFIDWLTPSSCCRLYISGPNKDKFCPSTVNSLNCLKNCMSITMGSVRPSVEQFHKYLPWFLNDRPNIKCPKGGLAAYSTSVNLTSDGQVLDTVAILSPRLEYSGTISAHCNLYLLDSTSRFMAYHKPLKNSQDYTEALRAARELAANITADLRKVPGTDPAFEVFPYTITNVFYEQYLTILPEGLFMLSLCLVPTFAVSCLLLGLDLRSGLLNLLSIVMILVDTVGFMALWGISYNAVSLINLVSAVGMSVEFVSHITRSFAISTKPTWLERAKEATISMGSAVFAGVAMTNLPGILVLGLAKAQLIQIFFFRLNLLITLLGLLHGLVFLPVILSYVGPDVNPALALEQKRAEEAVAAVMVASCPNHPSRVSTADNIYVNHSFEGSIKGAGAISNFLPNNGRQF
Assay: Inhibition of NPC1L1 (unknown origin) assessed as inhibition of cholesterol cellular uptake by BCA colorimetric assay

IC50: 370 nM
SMILES: O=C1[C@H](CC[C@H](O)c2ccc(F)cc2)[C@@H](c2ccc(O)cc2)N1c1ccc(F)cc1 [EZETIMIBE]
